Laboratory results as given in PMC8217813, “Bridging Computational Vaccinology and Vaccine Development Through Systematic Identification, Characterization, and Downselection of Conserved and Variable Circumsporozoite Protein CD4 T Cell Epitopes From Diverse Plasmodium falciparum Strains” (Frontiers in Immunology, 2021).
Like-named read-outs stand apart in the source and are kept apart here. Peptide text beside a SMILES is read from it.

Columns and labels:
[1] = molecular target: HLA-DRB1*0701 (Homo sapiens, UniProt P01903+P01911, A100R/A102G/A103Q/D57E/D86V/E43K/F76Y/K127E/L162R/M171V/P40G/Q125H/Q99D/R33Q/R42Y/R54Q/S133A/S66F/T210M/V115G/Y107V/Y59L/Y89S); test: In vitro class II HLA binding competition assay
Protocol: (§1) EpiVax conducted in vitro quantification of peptide-HLA binding affinity utilizing a competition assay format per the methodology described in ([35]). Briefly, a fluorescent-labeled, high-binding reference peptide and titrating concentrations of test peptide were incubated in a 96-well plate format with limiting concentrations of class II HLA monomers in aqueous buffer for 24-hours. Post incubation, the mixtures were moved to a 96-well plate coated with anti-HLA-DR antibody to capture HLA-peptide complexes. Time-resolved fluorescence measurement of the bound labeled reference peptide complex present in each mixture were detected with a europium-linked probe via fluorescent spectrophotometry using a SpectraMax M5 system. HLA binding affinity of each test peptide was expressed as the percent inhibition of reference peptide binding. Percent inhibition values (across the test peptide titration range) were used to calculate the half maximal inhibitory concentration (IC50) of each test peptide. For these studies, test peptides were assessed using a range of final concentrations from 100,000 nM to 100 nM and all peptides were reconstituted in dimethyl sulfoxide (DMSO).

[2] = molecular target: T1, HLA-DRB1*0101 (Homo sapiens, UniProt P01903+P01911, A100R/D57E/F55L/F60I/F76Y/I96L/L162R/M171V/P40L/Q125E/R42F/V115G/Y59C); test: In vitro class II HLA binding competition assay
T1 construct: purchased
Protocol: as §1

[3] = molecular target: T2, HLA-DRB1*1501 (Homo sapiens, UniProt P01903+P01911); test: In vitro class II HLA binding competition assay
T2 construct: purchased
Protocol: as §1

[4] = molecular target: HLA-DRB1*1301 (Homo sapiens, UniProt P01903+P01911, A100E/A169T/K41T/L162R/M171V/P40S/Q125H/Q178H/Q39Y/Q99D/R42S/S66N/T262R/W38E/Y61H); test: In vitro class II HLA binding competition assay; details: competition with fluorescent-labeled reference peptide, class II HLA monomers, 24-hours, test peptide 100,000 nM to 100 nM, time-resolved fluorescence
Protocol: as §1

[5] = molecular target: HLA-DRB1*0801 (Homo sapiens, UniProt P01903+P01911, A100R/A103L/A169T/D86S/F76Y/H45Y/I96F/K41T/L162R/M171V/P40S/Q125H/Q178H/Q39Y/Q99D/R218S/R42G/S66Y/V115G/W38E); test: In vitro class II HLA binding competition assay; details: competition with fluorescent-labeled reference peptide, class II HLA monomers, 24-hours, test peptide 100,000 nM to 100 nM, time-resolved fluorescence
Protocol: as §1

[6] = molecular target: T3, HLA-DRB1*0401 (Homo sapiens, UniProt P01903+P01911, A100K/A169T/F76Y/I96L/K127E/L162R/M171V/N62H/P40V/Q125Y/R42H/S133A/S149N/S66Y/V115G/V209L/W38E); test: In vitro class II HLA binding competition assay
T3 construct: purchased
Protocol: as §1

[7] = tested on: CD4 T cells co-cultured with autologous DCs from PBMCs; format: cell-based, human
[8] = molecular target: T4, HLA A*0201 (Homo sapiens, UniProt P04439, D140Y/D185E/D98H/E176V/E277Q/G131W/G231S/I119V/I121R/I166T/I218V/L300P/L318F/N151K/N90K/P208A/P217A/Q86G/Q94H/R138H/R169H/T345S); test: biochemical; format: binding; details: allele A0201; cell-free competition with fluorescently labeled control peptide, fluorescence polarization at 72 hours
T4 construct: Pure Protein, LLC (ran the assay)

[9] = DR1 donors N=5, positive = Stimulation Index ≥1.5-fold above baseline, ICCS, 5 µg/mL peptide
[10] = DR3 donors N=6, positive = Stimulation Index ≥1.5-fold above baseline, ICCS, 5 µg/mL peptide
[11] = DR4 donors N=10, positive = Stimulation Index ≥1.5-fold above baseline, ICCS, 5 µg/mL peptide
[12] = DR7 donors N=4, positive = Stimulation Index ≥1.5-fold above baseline, ICCS, 5 µg/mL peptide
[13] = DR8 donors N=4, positive = Stimulation Index ≥1.5-fold above baseline, ICCS, 5 µg/mL peptide
[14] = DR9 donors N=4, positive = Stimulation Index ≥1.5-fold above baseline, ICCS, 5 µg/mL peptide
[15] = DR11 donors N=4, positive = Stimulation Index ≥1.5-fold above baseline, ICCS, 5 µg/mL peptide
[16] = DR13 donors N=7, positive = Stimulation Index ≥1.5-fold above baseline, ICCS, 5 µg/mL peptide
[17] = DR15 donors N=7, positive = Stimulation Index ≥1.5-fold above baseline, ICCS, 5 µg/mL peptide

CC(C)C[C@H](NC(=O)[C@@H](NC(=O)[C@H](CCCNC(=N)N)NC(=O)[C@@H](NC(=O)[C@H](CC(N)=O)NC(=O)[C@H](CO)NC(=O)[C@H](CO)NC(=O)[C@H](CO)NC(=O)CNC(=O)[C@H](Cc1ccc(O)cc1)NC(=O)[C@H](CS)NC(=O)[C@H](CCC(N)=O)NC(=O)[C@H](Cc1ccc(O)cc1)NC(=O)[C@H](CCC(=O)O)NC(=O)[C@H](CCC(N)=O)NC(=O)[C@H](Cc1ccccc1)NC(=O)[C@H](CCCCN)NC(=O)[C@@H](N)CCCCN)[C@@H](C)O)C(C)C)C(=O)N[C@@H](CC(N)=O)C(=O)N[C@@H](CCC(=O)O)C(N)=O [Cluster C1] (H-KKFQEYQCYGSSSNTRVLNE-NH2)
IC50 ([1]; competition with fluorescent-labeled reference peptide, class II HLA monomers, 24-hours, test peptide 100,000 nM to 100 nM, time-resolved fluorescence, read-out: IC50, DRB1*0701): 36.7 µM | IC50 ([2]; competition with fluorescent-labeled reference peptide, class II HLA monomers, 24-hours, test peptide 100,000 nM to 100 nM, time-resolved fluorescence): 50.1 µM | IC50 ([3]; competition with fluorescent-labeled reference peptide, class II HLA monomers, 24-hours, test peptide 100,000 nM to 100 nM, time-resolved fluorescence, read-out: IC50, DRB1*1501): 1.77 µM

CC[C@H](C)[C@H](NC(C)=O)C(=O)N[C@@H](CCC(=O)O)C(=O)N[C@@H](CCC(N)=O)C(=O)N[C@@H](Cc1ccc(O)cc1)C(=O)N[C@@H](CC(C)C)C(=O)N[C@@H](CCCCN)C(=O)N[C@@H](CCCCN)C(=O)N[C@H](C(=O)N[C@@H](CCC(N)=O)C(=O)N[C@@H](Cc1ccc(O)cc1)C(=O)N[C@@H](CO)C(=O)N[C@@H](CC(C)C)C(=O)N[C@@H](CO)C(=O)N[C@H](C(=O)N[C@@H](CCC(=O)O)C(=O)N[C@@H](Cc1c[nH]c2ccccc12)C(=O)N[C@@H](CO)C(=O)N1CCC[C@H]1C(=O)N[C@@H](CS)C(N)=O)[C@@H](C)O)[C@@H](C)CC [ICS7] (Ac-IEQYLKKIQYSLSTEWSPC-NH2)
IC50 [1]: 2.76 µM | IC50 [2]: > 100 µM | IC50 [4]: 17.9 µM | IC50 [3]: 63.2 µM | IC50 [5]: 6.09 µM | IC50 [6]: 32.8 µM | median SI, IFN-γ recall responses [7]: 1.75 | Percentage of donors demonstrating IFN-γ responses, DR1 ([7]; DR1 donors N=5, positive = Stimulation Index ≥1.5-fold above baseline, ICCS after 14-day co-culture, 5 µg/mL peptide): 60% | Percentage of donors demonstrating IL-2 responses, DR1 [7, 9]: 60% | Percentage of donors demonstrating IL-4 responses, DR1 [7, 9]: 20% | Percentage of donors demonstrating IL-10 responses, DR1 [7, 9]: 0% | Percentage of donors demonstrating TNF-α responses, DR1 [7, 9]: 40% | Percentage of donors demonstrating IFN-γ responses, DR3 ([7]; DR3 donors N=6, positive = Stimulation Index ≥1.5-fold above baseline, ICCS after 14-day co-culture, 5 µg/mL peptide): 67% | Percentage of donors demonstrating IL-2 responses, DR3 [7, 10]: 33% | Percentage of donors demonstrating IL-4 responses, DR3 [7, 10]: 0% | Percentage of donors demonstrating IL-10 responses, DR3 [7, 10]: 0% | Percentage of donors demonstrating TNF-α responses, DR3 [7, 10]: 50% | Percentage of donors demonstrating IFN-γ responses, DR4 ([7]; DR4 donors N=10, positive = Stimulation Index ≥1.5-fold above baseline, ICCS after 14-day co-culture, 5 µg/mL peptide): 70% | Percentage of donors demonstrating IL-2 responses, DR4 [7, 11]: 70% | Percentage of donors demonstrating IL-4 responses, DR4 [7, 11]: 0% | Percentage of donors demonstrating IL-10 responses, DR4 [7, 11]: 10% | Percentage of donors demonstrating TNF-α responses, DR4 [7, 11]: 80% | Percentage of donors demonstrating IFN-γ responses, DR7 ([7]; DR7 donors N=4, positive = Stimulation Index ≥1.5-fold above baseline, ICCS after 14-day co-culture, 5 µg/mL peptide): 75% | Percentage of donors demonstrating IL-2 responses, DR7 [7, 12]: 75% | Percentage of donors demonstrating IL-4 responses, DR7 [7, 12]: 0% | Percentage of donors demonstrating IL-10 responses, DR7 [7, 12]: 25% | Percentage of donors demonstrating TNF-α responses, DR7 [7, 12]: 75% | Percentage of donors demonstrating IFN-γ responses, DR8 ([7]; DR8 donors N=4, positive = Stimulation Index ≥1.5-fold above baseline, ICCS after 14-day co-culture, 5 µg/mL peptide): 75% | Percentage of donors demonstrating IL-2 responses, DR8 [7, 13]: 75% | Percentage of donors demonstrating IL-4 responses, DR8 [7, 13]: 0% | Percentage of donors demonstrating IL-10 responses, DR8 [7, 13]: 0% | Percentage of donors demonstrating TNF-α responses, DR8 [7, 13]: 100% | Percentage of donors demonstrating IFN-γ responses, DR9 ([7]; DR9 donors N=4, positive = Stimulation Index ≥1.5-fold above baseline, ICCS after 14-day co-culture, 5 µg/mL peptide): 50% | Percentage of donors demonstrating IL-2 responses, DR9 [7, 14]: 75% | Percentage of donors demonstrating IL-4 responses, DR9 [7, 14]: 0% | Percentage of donors demonstrating IL-10 responses, DR9 [7, 14]: 0% | Percentage of donors demonstrating TNF-α responses, DR9 [7, 14]: 50% | Percentage of donors demonstrating IFN-γ responses, DR11 ([7]; DR11 donors N=4, positive = Stimulation Index ≥1.5-fold above baseline, ICCS after 14-day co-culture, 5 µg/mL peptide): 25% | Percentage of donors demonstrating IL-2 responses, DR11 [7, 15]: 25% | Percentage of donors demonstrating IL-4 responses, DR11 [7, 15]: 0% | Percentage of donors demonstrating IL-10 responses, DR11 [7, 15]: 0% | Percentage of donors demonstrating TNF-α responses, DR11 [7, 15]: 25% | Percentage of donors demonstrating IFN-γ responses, DR13 ([7]; DR13 donors N=7, positive = Stimulation Index ≥1.5-fold above baseline, ICCS after 14-day co-culture, 5 µg/mL peptide): 86% | Percentage of donors demonstrating IL-2 responses, DR13 [7, 16]: 57% | Percentage of donors demonstrating IL-4 responses, DR13 [7, 16]: 0% | Percentage of donors demonstrating IL-10 responses, DR13 [7, 16]: 14% | Percentage of donors demonstrating TNF-α responses, DR13 [7, 16]: 71% | Percentage of donors demonstrating IFN-γ responses, DR15 ([7]; DR15 donors N=7, positive = Stimulation Index ≥1.5-fold above baseline, ICCS after 14-day co-culture, 5 µg/mL peptide): 43% | Percentage of donors demonstrating IL-2 responses, DR15 [7, 17]: 57% | Percentage of donors demonstrating IL-4 responses, DR15 [7, 17]: 0% | Percentage of donors demonstrating IL-10 responses, DR15 [7, 17]: 14% | Percentage of donors demonstrating TNF-α responses, DR15 [7, 17]: 57%

CKMEKCSSV [369_3D7 (9)]
IC50 (nM) [8]: Non-Binder
